For one data set, the system named is FPRL-1. To be noted: uM concentrations; cited from earlier work.
Data set [1] deals with T1, S. cerevisiae pheromone receptor, Ste2p (Saccharomyces cerevisiae, UniProt D6VTK4).
T1 sequence (D6VTK4 1-431): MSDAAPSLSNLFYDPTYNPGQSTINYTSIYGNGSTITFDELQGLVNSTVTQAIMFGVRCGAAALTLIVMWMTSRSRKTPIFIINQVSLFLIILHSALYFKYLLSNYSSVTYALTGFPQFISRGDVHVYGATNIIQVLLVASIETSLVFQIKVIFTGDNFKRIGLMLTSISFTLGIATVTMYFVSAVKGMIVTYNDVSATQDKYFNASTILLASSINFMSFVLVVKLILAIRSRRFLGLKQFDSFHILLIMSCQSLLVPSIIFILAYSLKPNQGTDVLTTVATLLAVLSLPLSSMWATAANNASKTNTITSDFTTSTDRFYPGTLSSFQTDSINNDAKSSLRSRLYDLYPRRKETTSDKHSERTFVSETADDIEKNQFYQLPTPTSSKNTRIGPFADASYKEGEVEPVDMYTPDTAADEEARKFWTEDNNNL
As to the kind of experiment: Bar1 plate assay, agonist-induced Ste2p activation. The data set is classed as cell-based. The protocol:
The cells were removed from the culture by filtration.
Assay plates were prepared as follows. CY 579 cells were grown overnight in YEPD medium.
Since CY 579 lacks the BAR1 gene, it is super-sensitive to α-factor causing its growth to be arrested on the YEPD+α-factor plate. If the conditioned media applied to the lawn contains Bar1p activity, the α-factor in that region is destroyed, allowing growth of the CY 579 cells.
First, the gene encoding the S. cerevisiae Gα, GPA 1, was reintroduced into the genome of CY 8034 (MATa gpa1*1162 far1-1 ste2*1154 ste14::trp1::LYS2 fus1-HIS3 ura3 trp1 leu2 lys2 his3 ade2-1 met1) by transformation with an integrating plasmid encoding GPA1 (Cadus 3907), creating CY 11364. Next, the gene encoding the S. cerevisiae RGS protein, SST2, was disrupted in this strain to create CY 11645. Since Sst2p is involved in desensitization of the pheromone response pathway, its disruption results in increased signaling through the pathway (Reviewed by Sprague and Thorner in Molecular and Cellular Biology of the Yeast Saccharomyces. Vol. 2. 1992).
A high copy number Ste2 expression plasmid was constructed as follows. […]
(to OD600 0.4). […] A standard curve was also done with each experiment (described in Example 1) to quantitate the results.

The target in another data set is T2, Ste2p (Saccharomyces cerevisiae, UniProt D6VTK4).
T2 construct: CY 1638 (MATa far1*1442 tbt1-1 FUS1-HIS3 trp1ura3 leu2 his3 suc2); endogenous in cells; host or cells: S. cerevisiae CY 11643 (MATa, pho3 and pho4 disrupted, from CY 1638 via CY 9788), carrying PHO4/STE12 chimera plasmids or Cadus 4129
T2 sequence (D6VTK4 1-431): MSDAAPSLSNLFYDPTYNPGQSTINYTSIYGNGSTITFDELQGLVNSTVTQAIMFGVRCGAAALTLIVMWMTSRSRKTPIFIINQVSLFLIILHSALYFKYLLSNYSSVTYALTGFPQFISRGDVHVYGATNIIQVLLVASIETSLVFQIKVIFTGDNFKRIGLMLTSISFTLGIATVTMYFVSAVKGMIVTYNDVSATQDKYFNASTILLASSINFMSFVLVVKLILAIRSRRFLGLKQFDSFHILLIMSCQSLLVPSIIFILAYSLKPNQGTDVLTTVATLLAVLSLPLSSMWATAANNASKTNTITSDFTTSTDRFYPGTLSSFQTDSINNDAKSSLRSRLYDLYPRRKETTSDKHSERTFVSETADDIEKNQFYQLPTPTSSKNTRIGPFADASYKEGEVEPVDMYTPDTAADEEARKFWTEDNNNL
Description: Pho5p acid phosphatase activity in strains with PHO4/STE12 chimerae (Ste2p activation). The data set is classed as cell-based, S. cerevisiae. On the procedure:
were used to amplify the KanMX2 gene. The amplification product was flanked by sequences corresponding to the 5' and 3' ends of the PHO4 gene. […] Transformants were selected on YEPD+geneticin (200 μg/ml) plates. […] Cells were patched onto YEPD or phosphate-depleted YEPD plates and allowed to grow overnight. For each plate, a mixture of 2 ml of molten 1% agarose in 50 mM NaAc pH 4.0, 700 μl H2 O, and 300 μl α-napthyl acid phosphate (50 mg/ml) was prepared and applied to the plate. Then 1 ml of D-dianisidine fast blue salt B (50 mg/ml in 50 mM NaAc pH 4.0) was poured onto the plate. The degree of color development is a measure of acid phosphatase activity produced by the patch of cells.
The PHO3 gene also encodes a secreted acid phosphatase, but its expression is not regulated by Pho4p. […] Since this gene is not essential and its presence would require that all assays be done under conditions of phosphate starvation, it was disrupted. Primers
were used to amplify sequences in the 3' untranslated region of the PHO3 gene. The amplification product which bears an EcoRI site ate its 5' end and an XbaI site at its 3' end was digested with EcoRI and XbaI and gel purified.
Cells were grown overnight in SD TRP- media. […] The cultures were split in half (2.5 ml each) and α-factor (25 μg) was added to one aliquot. After 2.5 hours at 30° C., the cells were collected by centrifugation, washed 3 times with H2 O, once with 50 mM NaAc pH 4.0, and resuspended in 250 μl 50 mM NaAc pH 4.0. […] 100 μl cells were added to 400 μl p-nitrophenyl phosphate (1 mg/ml in 50 mM NaAc pH 4.0). After 15 min at room temperature, 720 μl saturated NaCO3 was added to stop the reaction. The cells were removed by centrifugation and the optical density at 420 nm was determined.

For a further data set, the target named is C5a receptor. To be noted: data derived from mammalian cells; read-out: binding constant of C5a to its receptor; cited from earlier work.
Data set [2] deals with human C5a receptor. As to the kind of experiment: Autocrine activation of pheromone pathway, growth read-out (fus1-HIS3). The data set is classed as cell-based. The source says:
The strain used for this analysis, CY455 (MATα tbt1-1 ura3 leu2 trp1 his3 fus1-HIS3 can1 ste14::TRP1 ste3* 1156) contains the following significant modifications. A pheromone inducible HIS3 gene, fus1-HIS3, is integrated at the Fus1 locus. A hybrid gene containing sequence encoding the first 41 amino acids of GPA1 (the yeast Gα subunit) fused to sequence encoding human Gαi2a (minus codons for the N-terminal 33 amino acids) replaces GPA1 at its normal chromosomal location. The yeast STE14 gene is disrupted to lower the basal level of signaling through the pheromone response pathway. The yeast a-factor receptor gene, STE3, is deleted. The last two modifications are probably not essential, but appear to improve the signal-to-noise ratio.
CY455 (MATα tbt1-1 ura3 leu2 trp1 his3 fus1-HIS3 can1 ste14::TRP1 ste3 * 1156) was transformed with the following plasmids:
Cadus 1303+Cadus 1297=Receptor^+ Ligand^+ =(R+L+)
Three colonies were picked from each transformation and grown overnight in media lacking leucine and uracil, at pH 6.8 with 25 mM PIPES (LEU URA pH6.8 with 25 mM PIPES). This media was made by adding 0.45 ml of sterile 1 M KOH and 2.5 ml of sterile 1M PIPES pH 6.8 to 100 ml of standard SD LEU- URA- media. […] The optical density at 600 nm of a 1/20 dilution of these cultures was determined and the cultures were diluted into 25 mM PIPES pH 6.8 to a final OD600 of 0.2. […]

Another data set deals with induced HL60 cells. As to the kind of experiment: Competition with radiolabeled C5a for binding on induced HL60 cells. To be noted: C5a expressed in yeast.
Data set [3] concerns human C5a receptor. Description: Autocrine activation, fus1-lacZ beta-galactosidase. The data set is classed as cell-based. To be noted: R+L+ cells. The protocol: CY878 (MATα tbt1-1 fus1-HIS3 caN1 ste14::trp1::LYS2 ste3* 1156 gpal(41)-Gαi2) was used as the starting strain for these experiments. This strain is a trp1 derivative of CY455. The transformants for this experiment contained CADUS 1584 (pRS424-fus1-lacZ) in addition to the receptor and ligand plasmids. Four strains were grown overnight in SD LEU URA TRP pH6.8 with 50 mM PIPES to an OD600 of less than 0.8. Assay of β-galactosidase activity can be done useing methods known in the art (Guarente 1983).

Consider `CSCC[C@H](NC=O)C(=O)N[C@@H](CC(C)C)C(=O)N[C@@H](Cc1ccccc1)C(=O)O` [f-Met-Leu-Phe], for which the “binding to fibroblasts transfected with FPRL-1 cDNA” value with FPRL-1 is recorded as “weak binding”.
On to α-factor, for which the “increase in Bar1p activity” value in data set [1] (cells expressing Ste2p (CY 11728), α-factor 10 μg, 2 h, 30° C.) is on record as “greater than 8 fold”. Also, in data set [1] (cells lacking the Ste2p expression plasmid (CY 11727)), the “Bar1p activity in conditioned media” value is given as “Little or no Bar1p activity was detected”. The “acid phosphatase activity inducible by pheromone” value on Ste2p (all strains expressing Pho4/Ste12 chimerae) is on record as “pheromone-inducible acid phosphatase activity was observed”. Besides, the “change of acid phosphatase activity on exposure to α-factor” value on Ste2p (cells expressing only the Pho4p DNA binding domain (CY11643+Cadus 4129)) is “not increased by exposure to α-factor”. The Pho5p induction ratio at Ste2p (other chimerae with very low constitutive activity) is 5-10 fold; on Ste2p (two chimerae with high constitutive activity (printed Cadus 4184 and Cadus 4185)), 2-4 fold.

B1: C5a: Human C5a is a 74 amino acid polypeptide that derives from the fifth component of complement (protein, UniProt P01031 678-751, looked up)
C5a anaphylatoxin: TLQKKIEEIAAKYKHSVVKKCCYDGACVNNDETCEQRAARISLGPRCIKAFTECCVVASQLRANISHKDMQLGR
modifications: C5a anaphylatoxin
notes: Human C5a is a 74 amino acid polypeptide that derives from the fifth component of complement
As for B1, the Kd at C5a receptor is 1 nM. The “growth on selective plates lacking histidine” value with human C5a receptor [2] (R+L+ strain, C5a expressed by the cell) was “show growth on the selective plates”. In addition, in the data set on human C5a receptor [2] (highest concentration tested), the “aminotriazole concentration up to which the R+L+ strain will grow” value is “up to 5 mM”. In addition, the “competition for binding with radiolabeled C5a” value in the data set with induced HL60 cells is listed as “shown to compete for binding”. Also, the “autocrine stimulation and β-galactosidase activity” value with human C5a receptor [3] was “results in autocrine stimulation and β-galactosidase activity”.
